In PubChem BioAssay AID504438 (Sanford-Burnham Center for Chemical Genomics, 2011):
The source made the active and inactive calls.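 How the source made its calls: active means IC50 below 20 µM in the dose response test; inactive means the rest.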

Molecular target: Type-1 angiotensin II receptor (Homo sapiens) (UniProt P30556)
Assay: AT1 receptor antagonist selectivity testing, SAR follow-up, selectivity assay for APJ receptor antagonist project, cell-based, CHO-K1 AGTR1, beta-arrestin, luminescence, set 4 (AID 504438)
Details: CHO-K1 AGTR1 beta-arrestin complementation

Chain of Type-1 angiotensin II receptor (Homo sapiens) (P30556 whole entry, looked up): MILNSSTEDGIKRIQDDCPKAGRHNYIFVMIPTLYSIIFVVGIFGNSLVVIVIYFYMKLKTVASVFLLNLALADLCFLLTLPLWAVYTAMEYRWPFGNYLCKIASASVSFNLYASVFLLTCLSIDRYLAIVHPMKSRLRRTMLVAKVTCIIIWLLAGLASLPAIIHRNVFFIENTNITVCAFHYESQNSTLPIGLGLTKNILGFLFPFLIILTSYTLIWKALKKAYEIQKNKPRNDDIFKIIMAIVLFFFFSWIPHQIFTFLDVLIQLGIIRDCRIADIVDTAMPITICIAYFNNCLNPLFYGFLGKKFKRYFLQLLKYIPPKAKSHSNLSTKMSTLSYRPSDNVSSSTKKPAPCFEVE

IC50, inactive:
Cc1cc(C)nc(SCc2cc(=O)c(OC(=O)c3ccc(-c4nccs4)cc3)co2)n1 > 79 µM
O=C(Oc1coc(CSc2ccc(OC(F)(F)F)cc2)cc1=O)c1ccc(Cl)c([N+](=O)[O-])c1 > 79 µM
COc1ccc(SCc2cc(=O)c(OC(=O)c3ccc(Cl)c([N+](=O)[O-])c3)co2)cc1 > 79 µM
O=C(Oc1coc(CN2CCOCC2)cc1=O)c1ccccc1 > 79 µM
Cc1ccc(SCc2cc(=O)c(OC(=O)c3ccc(Cl)c([N+](=O)[O-])c3)co2)cc1 > 79 µM
O=C(Oc1coc(CSc2ccc(Cl)cc2)cc1=O)c1ccc(Cl)c([N+](=O)[O-])c1 > 79 µM
O=C(Oc1coc(CN2CCOCC2)cc1=O)c1ccc([N+](=O)[O-])cc1 > 79 µM
Cc1ccnc(SCc2cc(=O)c(NC(=O)c3ccc([N+](=O)[O-])cc3)co2)n1 > 79 µM
